Data on four molecules can be found in article PMC8657848, “Developmental Toxicity and Biotransformation of Two Anti-Epileptics in Zebrafish Embryos and Early Larvae” (International Journal of Molecular Sciences, 2021).

Several values for one entry are separate records, joined by “and”; a condition that tells them apart may be missing. Equal entries are not always repeated.

One data set has as its system zebrafish embryos. Conditions: cited from earlier work; for Teratogenicity on zebrafish development: after 70 h of exposure (time point 72 hpf).
The subject of data set [1] is zebrafish embryos and larvae. Kind of data set: Morphological evaluation of zebrafish embryos/larvae exposed from 5¼ to 120 hpf. The conditions noted are these: for Significant effect on embryo/larva development after exposure to the metabolite: 5¼–120 hpf; for Teratogenicity in zebrafish (conclusion from morphological and analytical assessment): exposure 5¼–120 hpf. How it is done:
Each experiment was performed in two biological replicates (n = 2, 20 embryos/replicate) and consisted of a medium control group (EMS), solvent control group(s) (EMS + 0.5% DMSO and/or EMS + 1% DMSO) and four dose groups. […] Embryos were reared until they reached the desired developmental stage, under the same environmental conditions as the adults (28.5 °C ± 0.3 °C with a 14/10 h light/dark cycle) in the incubator (TIN-IN35, Phoenix instrument, Garbsen, Germany).
For the metabolites, E-CBZ (≥98% purity, CAS number: 36507-30-9, Supelco, Merck, Darmstadt, Germany) and HPPH (98% purity, CAS number: 2784-27-2, Sigma-Aldrich®, Merck, Darmstadt, Germany), we only selected one high concentration, 250 µM (see Supplementary Table S1). […] A higher percentage of DMSO was used for E-CBZ for the optimum dissolution of E-CBZ in EMS. Immediately after the selection (see Section 4.1), twenty embryos were randomly distributed in each control and test group. Embryos were exposed at the latest at 5 hpf in a final volume of 300 µL medium at a density of a fish per well.
For each biological replicate (n = 2), zebrafish embryos were morphologically investigated at 5¼, 10, 24, 48, 72, 96 and 120 hpf (Figure 9) using an Olympus CKX41 microscope with an Olympus U-TV0.5XC-3 lighting and an Olympys 4x/0.16 Uplan APO microscope objective (Shinjuku, Tokyo, Japon) to follow the developmental stages described by Kimmel et al.. The 5¼- and 10-hpf time points served as control steps to identify unfertilized or coagulated eggs that were included unwittingly to the experiment and referenced as coagulated in the 24-hpf morphological sheet (see Supplementary Figure S3). A series of morphological parameters were explored, adapted from Nagel et al., depending on the different time points of interest and described previously by our group (see Supplementary Figure S3). All parameters were scored 0 if normal and 1 if malformed. This binary scale was used to facilitate the scoring and no gradation of the severity of the endpoints was evaluated in this study.

Data set [2] can be described thus: Quantification of compound in stock and culture medium relative to nominal concentration (LC-MS). The conditions noted are these: 96 hpf. It counts as physicochemical. How it is done: The control and test mediums were also kept in the same incubator until the last time point of the experiment. The embryo media were renewed every 48 h, to avoid medium acidification and oxygen deprivation. At each medium change and at the last time point of the experiment (Figure 9), the media exposed to the embryos were pooled and kept at −80 °C for further use (n = 3). Moreover, samples from the stock solutions kept at 28.5 °C ± 0.3 °C were also taken at 0 and 120 hpf (n = 3), whereas samples were only taken at 96 hpf for the metabolites medium (E-CBZ and HPPH).

The next data set concerns zebrafish embryos/larvae. The experiment in a line: Quantification of parent compounds and metabolites in whole zebrafish embryos/larvae homogenate extracts. The conditions noted are these: for Uptake by embryos and larvae (quantified in homogenate extracts): 24 and 120 hpf, CBZ, PHE 31.25, 85, 250 µM, E-CBZ, HPPH 250 µM. How it is done:
In three biological replicates (n = 3; 20 embryos/replicate) and at the two desired developmental stages (24 and 120 hpf), embryos/larvae of each test and control group were pooled and then rinsed three times with cold EMS (4 °C) on a mesh (Cell strainer […] Nylon, Steril Falcon®, Durham, NC, USA). Embryos collected at 24 hpf were not dechorionated, as the focus of this study was on the potential formation of the mammalian active metabolites. Moreover, it was argued that the chorion was more permeable than previously believed and that dechorionation could increase background malformations during gross morphology investigation. Embryos/larvae were then transferred and kept for five min in cryotubes (Cryo.S™, Greiner Bio-One, Frickenhausen, Germany) filled with 500 µL of cold embryo medium (4 °C), before being snap-frozen in liquid nitrogen and kept, for later use, at −80 °C (Figure 9).
The extraction preparation was based on Brox et al. for two developmental stages, 24 and 120 hpf, and performed in triplicate for each test group (n = 3, 20 embryos/replicate) (Figure 9). On the day of the extraction procedure, frozen samples (see Section 4.2.1) were thawed on ice and EMS was removed. A volume of 500 µL of acetonitrile (ACN) (purity ≥99.9%, Merck, Darmstadt, Germany) containing the internal standard lamotrigine, LAMO, (≥98% purity, CAS number: 84057-84-1, Sigma-Aldrich, Merck, Darmstadt, Germany) was then added to each tube to reach a final concentration of 0.39 µM, after dilution in HPLC-grade water. Samples were vortexed (VM3, CAT, Germany) for 5 min at a 2000 rotation/min speed, before being placed on ice and ultrasonicated with an Ultrasonic Processor VCX 130 (Sonics, Newtown, CT, USA) fifteen times for 30 s at an 80% amplitude with pause intervals of 30 s. Supernatants of the samples were then centrifuged (Centrifuge 5424 R, Eppendorf, Hamburg, Germany) twice at 4 °C for 15 min at 15,000× g, snap-frozen and kept for later use at −80 °C, whereas the pellets were discarded.
First, both sample types were processed to reach a final percentage of 30% ACN and a concentration of 0.39 µM of the IS, LAMO. […] Calibration curves and quality controls were prepared in their corresponding reaction mixtures to minimize matrix or extraction process effects. The analytical investigations were performed on an Acquity Ultra Performance Liquid Chromatography (UPLC) with sample manager, binary solvent manager, diode array detector and a triple-quadrupole detector (ACQUITY UPLC-triple quadrupole detector, Waters, Milford, CT, USA) equipped with the Masslynx software (version 4.1). […] Separation was accomplished in 6 min, using a flow rate of 0.5 mL/min. The solvent gradient program was set as follows: 85% A/15% B (0–0.5 min); 85–0% A/15–100% B (0.5–3.3 min); 0% A/100% B (3.3–4.4 min); 0–85% A/100–15% B (4.4–4.5 min); 85% A/15% B (4.5–6 min). The column was set at 40 °C and the injection volume was 10 μL. For the mass spectrometric conditions, the following parameters were used in positive ionization mode: capillarity voltage 3.5 kV, extractor voltage 3 V, cone voltage 35 V, Rf lens 0.1 V. The source temperature was set at 120 °C and the desolation temperature at 450 °C. The desolvation gas flow was fixed at 1000 L/h and cone gas flow at 50 L/h. […] The limit of quantification, linearity, matrix effects and specificity of the method developed for each compound were validated based on the European Medicines Agency (EMA) guidelines for bioanalytical method validation and the study from Kislyuk et al..
For the quantification of the metabolites E-CBZ and HPPH, the samples processed were the microsomal incubation reactions (see Section 4.3.2), the zebrafish culture and stock medium (4.2.1) and the zebrafish embryos/larvae extracts (see Section 4.2.3). Samples from the different experiments were also prepared, as for the parent compounds, to reach a final percentage of 30% ACN and a concentration of 0.39 µM of the IS, LAMO.

Where [3] appears, read: CBZ/E-CBZ experiment, 250 µM, 120 hpf, affected/evaluated, replicates 1 and 2.
[4] abbreviates: PHE/HPPH experiment, 250 µM, 120 hpf, affected/evaluated, replicates 1 and 2.

For `CC1(C)OC(=O)NC1=O` [DMO, dimethadione], the “Teratogenicity on zebrafish development” value with zebrafish embryos is given as “induced teratogenicity”.

`NC(=O)N1c2ccccc2C2OC2c2ccccc21` (stereo not drawn) [E-CBZ, carbamazepine-10,11-epoxide]: the “Significant effect on embryo/larva development after exposure to the metabolite” value in data set [1] (250 µM) is “delay in swim bladder inflation at 120 hpf for one replicate”. Further, the “Morphological differences compared with the controls before 48 hpf” value in data set [1] (CBZ 31.25, 85, 250 µM, E-CBZ 250 µM) is “No statistically significant differences”. Moreover, in data set [1] (setting [3]), the “Deviation Tail Curve” value is 1/20, the “Malformation Head Deviation Eye” value is on record as 1/20, the “Malformation Head Deviation Mouth” value is 1/20 and the “Oedema Head” value was 1/20. Further, in data set [1] (setting [3]), the “Oedema Pericardium” value is on record as 1/20; the “Oedema Yolk” value is 1/20; the “Swim Bladder Not Inflated” value was 3/20 and 6/20 *. Further, the “Teratogenicity in zebrafish (conclusion from morphological and analytical assessment)” value in data set [1] was “not teratogenic in zebrafish”. Also, the “Quantified concentration above the nominal concentration” value in data set [2] (250 µM, culture medium) is reported as “around 20%”. Besides, the “Percentage of quantified compound concentration relatively to the nominal concentration” value in data set [2] (CBZ–E-CBZ, Culture medium, nominal 250 µM) is recorded as 117.3 ± 9.3%. Moreover, the “Uptake by embryos and larvae (quantified in homogenate extracts)” value with zebrafish embryos/larvae is “Uptake of the compounds was also observed”. In addition, in the data set on zebrafish embryos (2.6 mg/L (10.3 µM), 3 to 144 hpf), the “Findings after incubation of zebrafish embryos” value was “lack of findings”.

Take `O=C1NC(=O)C(c2ccccc2)(c2ccc(O)cc2)N1` (stereo not drawn) [HPPH, 5-(4-hydroxyphenyl)-5-phenylhydantoin]: the “Significant effect on embryo/larva development after exposure to the metabolite” value in data set [1] (250 µM) is recorded as “no significant effect”. Moreover, in data set [1] (setting [4]), the “Deviation Tail Curve” value was 2/20; the “Deviation Tail Tissue Deviation” value is 1/20; the “Malformation Head Deviation Eye” value is 2/20; the “Swim Bladder Not Inflated” value was 5/20 and 6/20. Also, the “Teratogenicity in zebrafish (conclusion from morphological and analytical assessment)” value in data set [1] is listed as “not teratogenic in zebrafish”. Also, in the data set on zebrafish embryos/larvae, the “Uptake by embryos and larvae (quantified in homogenate extracts)” value was “Uptake of the compounds was also observed”. In addition, the “Internal concentration, times higher at 24 hpf than at 120 hpf” value with zebrafish embryos/larvae (all concentrations) is around 5 times.

Take `CN1C(=O)OC(C)(C)C1=O` [TMO, trimethadione]: in the data set with zebrafish embryos, the “Teratogenicity on zebrafish development” value was “induced teratogenicity”.
